Results as given in patent publication EP4268810A1 (priority 2022, dated 2023).
Where two headings read alike, the source gives them in different places.

Key:
[1] = tested on: DENV type 2 reporter virus
[2] = tested on: icSARS-CoV-2-mNG; assay: microbe, parasite or virus in culture; conditions: Severe acute respiratory syndrome coronavirus 2, Calu-3
[3] = tested on: Calu-3 cells; conditions: read-out: CC50 IncuCyte, 72h, cell confluency, 4320 min
Method: (§1) Calu-3 (40.000/well), Huh7.5 (10.000/well) and CaCo2 (10.000/well) cells were seeded in 96-well plates in DMEM-Media. The cells were treated with the drug compounds at the indicated concentrations, negative control (non-treated), DMSO control and positive control (50% DMSO treated) were added, and plates were then stored in the IncuCyte® at 37 °C, 5 % CO2 for 72h measuring every 3 hours cell confluency via phase channel with 10x objective. For Analysis IncuCyte® S3 Software was used.
(§2) Plates were then stored in the IncuCyte® measuring every 3 hours cell confluency.

[4] = in vitro; conditions: human, caco-2
Method: as §1, §2

[5] = in vitro; conditions: human, calu-3 cells, CC50 IncuCyte
Method: as §1, §2

[6] = tested on: Huh7.5 cells; assay: Cell viability via live cell imaging (IncuCyte); conditions: read-out: CC50 IncuCyte, 72h, cell confluency
Method: as §1, §2

[7] = tested on: DENV type 2 reporter virus; assay: microbe, parasite or virus in culture; conditions: Dengue virus
[8] = tested on: icSARS-CoV-2-mNG; conditions: for Therapeutic range: CC50/IC50, CTG / Therapeutic range: CC50/IC50, IncuCyte / Therapeutic range: CC50/IC50, MTT: human, calu-3 cells
[9] = tested on: icSARS-CoV-2-mNG
[10] = tested on: Calu-3 cells; conditions: read-out: CC50 MTT, 72h
[11] = in vitro; conditions: human, huh7.5 cells, CC50 MTT
[12] = tested on: Huh7.5 cells; conditions: read-out: CC50 MTT, 72h, 4320 min

Structure (SMILES) | IC50 [2] | IC50 ([7]; Huh7.5, 24 h) | Therapeutic range: CC50/IC50, CTG [8] | Therapeutic range: CC50/IC50, IncuCyte [8] | Therapeutic range: CC50/IC50, MTT [8] | SARS-CoV-2 infection (infection rate, mNG+/Hoechst+ cells) [9] | toxicity (staining of the nuclei, cell count) [8] | further results
COc1[nH]c(=O)c(C(=O)C(C)CC(C)C(Cl)CCl)c(O)c1OC (centres unmarked) [Atpenin A5] | 0.5 µM | 0.27 µM | CTG: 1.72 | IncuCyte: > 320 | MTT: 24 | inhibited SARS-CoV-2 infection of the cell lines in a dose-dependent manner | – | Therapeutic range: CC50/IC50, CTG ([1]; Dengue Virus in Huh7.5 cells, CC50 by CTG): CTG: 229.5; Therapeutic range: CC50/IC50, IncuCyte ([1]; Dengue Virus in Huh7.5 cells, CC50 by IncuCyte): IncuCyte: 240.7; Therapeutic range: CC50/IC50, MTT ([1]; Dengue Virus in Huh7.5 cells, CC50 by MTT): MTT: 375.2; CC50 [3]: > 80 µM; CC50 at 72 h [4]: > 60 µM; CC50 at 72 h ([5]; 72h, cell confluency): > 160 µM; CC50 [6]: 65 µM
CN(C)C(=N)N=C(N)N [Metformin] | 459 µM | – | – | – | – | – | without any cytotoxicity | –
[H]/N=C(/N)N/C(=N/[H])NCCc1ccccc1 [Phenformin, phenformin] | 1.73 µM | 18.6 µM | CTG: 1306.4 | IncuCyte: 867.1 | MTT: 876.3 | inhibited SARS-CoV-2 infection of the cell lines in a dose-dependent manner | without any toxicity | CC50 [10]: 1520 µM; Therapeutic range: CC50/IC50, CTG ([1]; human, huh7.5 cells): CTG: 109.2; Therapeutic range: CC50/IC50, IncuCyte ([1]; human, huh7.5 cells): IncuCyte: 59.9; Therapeutic range: CC50/IC50, MTT ([1]; human, huh7.5 cells): MTT: 3.3; CC50 at 72 h [11]: 61 µM; CC50 [12]: 61.2 µM; CC50 at 72 h [5]: 1500 µM; IC50 ([7]; Huh7.5): 18.6 µM
CC(C)Cc1nn(C)c(=O)c2c(SCCCO)n(Cc3cccc4ccccc34)cc12 [SR13800] | – | – | – | – | – | – | – | toxicity (cell viability by Hoechst staining of the nucleus) [9]: toxic
O[C@H]1[C@H](O)[C@@H](O)[C@H](O)[C@@H](O)[C@@H]1O [Scyllo-Inositol] | – | – | – | – | – | did not show any activity | – | –
